Assay results published in publication PMC5520492, “Inhibition of DNA2 nuclease as a therapeutic strategy targeting replication stress in cancer cells” (Oncogenesis, 2017).

What was measured:
[1] = tested on: U2OS SSA reporter cells; experiment: Single strand annealing (SSA) GFP reporter assay; type: cell-based, human; conditions: 24-h treatment
Description: The DR-green fluorescent protein, pCAGGS and pCBASce plasmids were kindly provided by Dr Maria Jasin (Memorial Sloan-Kettering Cancer Center, New York, NY, USA). U2OS cells containing a single copy of the HR repair reporter substrate DR-green fluorescent protein were generated as previously described.[48] Single stand annealing reporter cells were kindly provided by Dr Jeremy Stark (Beckman Research Institute of the City of Hope, Duarte, CA, USA).[49] Details in Supplementary Materials and Methods.
Figure S6. NSC-105808 reduces DSB repair by SSA. Cells were transfected with EGFP or I-SceI plasmids for 24 hrs and then cultured for an additional 48 hr before analysis by flow cytometry (top). Treatment with NSC-105808 was for 24 hrs prior to flow cytometry. Bar graph showing SSA efficiency in cells treated with NSC-105808 as compared to control cells treated with DMSO. The average data from three independent experiments are shown, with the error bars representing standard deviation (n=3, bottom).
The GFP expressing plasmid (pEGFP-C1) was used for transfection efficiency control. Cells were transfected with the pCBASce plasmid. […] Efficiency of HR and SSA was calculated by normalizing I-SceI-induced GFP expression with EGFP transfection-induced GFP expression. […]

[2] = biological target: T1, EXO1 (Homo sapiens, UniProt Q9UQ84); experiment: EXO1 nuclease assay (2 kb dsDNA degradation); type: biochemical; conditions: 10 µM; EXO1 5 nM
T1 construct: made in house
T1 sequence (Q9UQ84 1-846): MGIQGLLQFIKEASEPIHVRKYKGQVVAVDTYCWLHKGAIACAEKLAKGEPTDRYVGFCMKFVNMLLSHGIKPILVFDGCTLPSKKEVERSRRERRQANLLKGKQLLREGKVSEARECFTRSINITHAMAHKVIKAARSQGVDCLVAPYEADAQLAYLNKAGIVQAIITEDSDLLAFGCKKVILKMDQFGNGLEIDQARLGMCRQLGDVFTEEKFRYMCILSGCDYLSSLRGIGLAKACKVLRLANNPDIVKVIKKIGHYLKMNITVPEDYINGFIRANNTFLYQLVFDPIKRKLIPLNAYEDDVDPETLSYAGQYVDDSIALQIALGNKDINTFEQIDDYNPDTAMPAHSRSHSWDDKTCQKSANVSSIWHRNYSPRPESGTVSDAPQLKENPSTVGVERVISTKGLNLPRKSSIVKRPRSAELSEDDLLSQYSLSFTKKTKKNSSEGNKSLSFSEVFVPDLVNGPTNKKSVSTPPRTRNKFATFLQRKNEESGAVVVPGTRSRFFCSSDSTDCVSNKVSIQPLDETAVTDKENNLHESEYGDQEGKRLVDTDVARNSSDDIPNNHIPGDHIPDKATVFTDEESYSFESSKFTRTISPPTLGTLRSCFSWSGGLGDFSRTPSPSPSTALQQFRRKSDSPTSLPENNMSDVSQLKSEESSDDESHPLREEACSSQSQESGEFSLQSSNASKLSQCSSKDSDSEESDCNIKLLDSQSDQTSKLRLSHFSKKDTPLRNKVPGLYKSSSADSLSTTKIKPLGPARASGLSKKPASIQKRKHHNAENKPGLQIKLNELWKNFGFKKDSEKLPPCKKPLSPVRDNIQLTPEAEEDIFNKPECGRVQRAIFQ
Experimental: Nuclease assays were performed in buffer R (20 mM Na-HEPES pH 7.5, 1 mM ATP, 0.1 mM DTT, 100 μg/ml bovine serum albumin, 0.05% Triton X-100, 2 mM MgCl2, 100 mM KCl) and contained 0.5 nM ends (2-kb substrate) or 5 nM ends (the ssDNA oligonucleotide PSOL6929) of DNA. Reactions containing Bloom syndrome also included an ATP regenerating system consisting of 10 mM creatine phosphate and 50 μg/ml creatine kinase. In control reactions, DMSO was used in place of the inhibitor. Reactions with DNA2 alone were incubated at 30 °C, and those with DNA2-Bloom syndrome-Replication protein A and EXO1 were incubated at 37 °C for the indicated times. […] Gels were dried onto DEAE paper on top of Whatman filter paper (GE, Issaquah, WA, USA) and then analyzed in a BioRad Personal Molecular Imager FX phosphorimager. Band intensity was quantified using Image Lab software (Bio-Rad, Hercules, CA, USA). The fraction of DNA substrate digested was determined by measuring the amount of substrate remaining and normalizing to the total substrate in the negative control lane containing no protein.
Figure S2. […] (b) Plots showing quantitation of the experiments shown in a. […] (d) Plots showing quantitation of the experiments shown in c. […] (f) Plot showing quantitation of the experiment in e. […]

## NC1=C(Br)C(=O)c2ncccc2C1=O [NSC-105808, 6-amino-7-bromoquinoline-5,8-dione]
[1]
  DSB repair by single stand annealing: significantly reduced
[2]
  Effect on nuclease activity of EXO1: does not inhibit
